How the values were obtained:
ΔF508-CFTR [1] = target: T1, ΔF508-CFTR (Homo sapiens, UniProt P13569, DEL508-508); experiment: CFTR cell surface levels using HRP-tagged ΔF508-CFTR expressing CFBE cells, in the presence of a co-corrector; assay type: cell-based
T1 construct: host or cells: CFBE41o-, doxycycline-inducible
Procedure, shortened: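 Cells were seeded with 0.5 μg/mL doxycycline and held 68 h at 37 °C. Test compounds plus 3 μM co-corrector (final 0.1% DMSO) were then added for 20 h at 33 °C. Washed cells received HRP substrate, and luminescence was normalized between DMSO and 3 μM co-corrector controls.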

ΔF508-CFTR [2] = target: T1, ΔF508-CFTR; experiment: CFTR cell surface levels using HRP-tagged ΔF508-CFTR expressing CFBE cells, intrinsic corrector capacity; assay type: cell-based
Procedure, shortened: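 Here the cells express ΔF508-CFTR with horseradish peroxidase inserted in extracellular loop 4, so only rescued channel at the surface gives luminescent signal. Compounds act on their own, 20 h at the reduced temperature of 33 °C; values are percent activity relative to DMSO and a 3 μM corrector.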

[3] = HRP-tagged ΔF508-CFTR expressing CFBE cells, in the presence of 3 μM co-corrector
[4] = HRP-tagged ΔF508-CFTR expressing CFBE cells, in the presence of 3 μM co-corrector, read-out: EC50
[5] = HRP-tagged ΔF508-CFTR expressing CFBE cells, intrinsic corrector capacity (no co-corrector), 33° C., 20 hours
[6] = HRP-tagged ΔF508-CFTR expressing CFBE cells, intrinsic corrector capacity (no co-corrector), 33° C., 20 hours, read-out: EC50
[7] = HRP-tagged ΔF508-CFTR CFBE41o- cells, compounds alone (intrinsic corrector capacity), 20 hours at 33° C., positive control 3 μM corrector
[8] = HRP-tagged ΔF508-CFTR CFBE41o- cells, compounds alone (intrinsic corrector capacity), 20 hours at 33° C., read-out: EC50

T1 sequence (P13569 with tags, fused parts or gaps DEL508-508): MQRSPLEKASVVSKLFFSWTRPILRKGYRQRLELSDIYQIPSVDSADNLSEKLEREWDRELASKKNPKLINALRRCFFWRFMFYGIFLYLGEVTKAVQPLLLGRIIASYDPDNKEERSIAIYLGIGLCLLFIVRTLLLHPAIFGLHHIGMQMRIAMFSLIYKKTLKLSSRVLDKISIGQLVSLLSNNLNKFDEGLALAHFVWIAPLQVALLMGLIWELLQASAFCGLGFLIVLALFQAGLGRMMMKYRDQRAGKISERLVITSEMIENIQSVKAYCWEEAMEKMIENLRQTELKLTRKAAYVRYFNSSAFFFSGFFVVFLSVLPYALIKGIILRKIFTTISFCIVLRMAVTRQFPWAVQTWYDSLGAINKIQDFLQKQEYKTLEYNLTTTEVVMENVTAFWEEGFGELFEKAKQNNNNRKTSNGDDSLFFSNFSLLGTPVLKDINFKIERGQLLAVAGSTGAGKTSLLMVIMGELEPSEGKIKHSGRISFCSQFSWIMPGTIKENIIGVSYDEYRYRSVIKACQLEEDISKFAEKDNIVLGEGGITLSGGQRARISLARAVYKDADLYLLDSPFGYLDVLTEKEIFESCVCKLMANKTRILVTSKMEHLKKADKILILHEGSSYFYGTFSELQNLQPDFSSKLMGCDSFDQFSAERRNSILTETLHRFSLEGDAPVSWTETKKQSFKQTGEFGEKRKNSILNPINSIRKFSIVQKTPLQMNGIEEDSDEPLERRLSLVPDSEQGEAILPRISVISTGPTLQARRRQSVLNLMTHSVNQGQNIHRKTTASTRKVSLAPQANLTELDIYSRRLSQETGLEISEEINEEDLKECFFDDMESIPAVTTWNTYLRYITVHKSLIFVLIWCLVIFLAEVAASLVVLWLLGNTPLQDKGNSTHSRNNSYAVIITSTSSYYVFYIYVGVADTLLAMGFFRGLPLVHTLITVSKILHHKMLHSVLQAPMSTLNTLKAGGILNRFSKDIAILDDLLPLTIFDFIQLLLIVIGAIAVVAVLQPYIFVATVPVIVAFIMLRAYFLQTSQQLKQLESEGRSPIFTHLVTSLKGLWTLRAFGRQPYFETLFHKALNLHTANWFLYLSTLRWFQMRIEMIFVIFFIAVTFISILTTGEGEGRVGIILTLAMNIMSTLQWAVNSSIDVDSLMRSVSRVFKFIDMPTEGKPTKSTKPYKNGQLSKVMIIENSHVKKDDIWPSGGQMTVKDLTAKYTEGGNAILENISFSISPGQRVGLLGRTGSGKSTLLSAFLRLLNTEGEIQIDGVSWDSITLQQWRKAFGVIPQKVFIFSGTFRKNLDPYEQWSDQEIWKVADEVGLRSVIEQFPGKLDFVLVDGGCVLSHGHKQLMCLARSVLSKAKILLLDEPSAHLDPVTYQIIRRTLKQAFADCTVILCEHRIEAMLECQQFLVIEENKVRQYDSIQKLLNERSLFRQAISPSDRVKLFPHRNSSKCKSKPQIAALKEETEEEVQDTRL

SMILES | % Activation (ΔF508-CFTR [1]; [3]) [%] | EC50 (ΔF508-CFTR [1]; [4]) [nM] | % Activation (ΔF508-CFTR [2]; [5]) [%] | EC50 (ΔF508-CFTR [2]; [6]) [nM] | % Activation (ΔF508-CFTR [2]; [7]) [%] | EC50 (ΔF508-CFTR [2]; [8]) [nM] | EC50 (ΔF508-CFTR [1]) [nM] | EC50 (ΔF508-CFTR [2]) [nM]
O=C(O)c1cc(N2CCC(CN3CCCC(F)(F)C3)CC2)c2c(C3CCC3)nn(-c3ccccc3)c2n1 [compound 830, 3-cyclobutyl-4-{4-[(3,3-difluoropiperidin-1-yl)methyl]piperidin-1-yl}-1-phenyl-1H-pyrazolo[3,4-b]pyridine-6-carboxylic acid] | 588.2 | 63.2 | 353.9 | 115 |  |  |  | 
O=C(O)c1cc(N2CC3(CCOC3)C2)c2c(C3CCC3)nn(-c3ccccc3)c2n1 [compound 534, 3-cyclobutyl-4-(6-oxa-2-azaspiro[3.4]octan-2-yl)-1-phenyl-1H-pyrazolo[3,4-b]pyridine-6-carboxylic acid] | 281.95 | 893 | 111 | 3330 |  |  |  | 
CC1OCC(Oc2cc(C(=O)O)nc3c2c(C2CCC2)nn3-c2ccccc2)CO1 (centres unmarked) [compound 493, 3-cyclobutyl-4-[(2-methyl-1,3-dioxan-5-yl)oxy]-1-phenyl-1H-pyrazolo[3,4-b]pyridine-6-carboxylic acid] | 286.5 | 396 | 129.05 | 645 |  |  |  | 
O=C(O)c1cc(N2CCC3(CCCC3)CC2)c2c(C3CCC3)nn(-c3ccccc3)c2n1 [compound 452, 4-(8-azaspiro[4.5]decan-8-yl)-3-cyclobutyl-1-phenyl-1H-pyrazolo[3,4-b]pyridine-6-carboxylic acid] | 282.3 | 1110 | 74.98 | 1110 |  |  |  | 
Cc1nn(-c2cccc(C(F)(F)F)c2)c2nc(C(=O)O)cc(-c3ccc(N4CCOCC4)cc3)c12 [compound 22, 3-methyl-4-[4-(morpholin-4-yl)phenyl]-1-[3-(trifluoromethyl)phenyl]-1H-pyrazolo[3,4-b]pyridine-6-carboxylic acid] | 310.95 | 995 |  |  | 131.28 | 1010 |  | 
Cc1nn(-c2ccccc2)c2nc(C(=O)O)cc(N3CC4CNCCN4C3=O)c12 (centres unmarked) [compound 290, 3-methyl-4-(3-oxohexahydroimidazo[1,5-a]pyrazin-2(3H)-yl)-1-phenyl-1H-pyrazolo[3,4-b]pyridine-6-carboxylic acid] | 127.35 | 7500 |  |  | 12.145 | 7500 |  | 
CC(C)c1nn(-c2cccc(F)c2)c2nc(C(=O)O)cc(-c3ccc(N(C)C4CCOCC4)cc3)c12 [compound 284, 1-(3-fluorophenyl)-4-{4-[nethyl(oxan-4-yl)amino]phenyl}-3-(propan-2-yl)-1H-pyrazolo[3,4-b]pyridine-6-carboxylic acid] | 435.23 | 282 |  |  | 240.8 | 501 |  | 
CC(C)(CO)c1nn(-c2ccccc2)c2nc(C(=O)O)cc(-c3ccc(N4CCOCC4)nc3)c12 [compound 92, 3-(1-hydroxy-2-methylpropan-2-yl)-4-[6-(morpholin-4-yl)pyridin-3-yl]-1-phenyl-1H-pyrazolo[3,4-b]pyridine-6-carboxylic acid] | 99.81 | > 10000 |  |  | 2.873 | > 10000 |  | 
O=C(O)c1cc(N2CCOC(C(F)(F)F)C2)c2c(C3CCC3)nn(-c3ccccc3)c2n1 (centres unmarked) [compound 596, 3-cyclobutyl-1-phenyl-4-[2-(trifluoromethyl)morpholin-4-yl]-1H-pyrazolo[3,4-b]pyridine-6-carboxylic acid] | 299.4 | 522 | 99.54 | 735 |  |  |  | 
COC1CCN(c2cc(C(=O)O)nc3c2c(C2CCC2)nn3-c2ccccc2)CC1 [compound 358, 3-cyclobutyl-4-(4-methoxypiperidin-1-yl)-1-phenyl-1H-pyrazolo[3,4-b]pyridine-6-carboxylic acid] | 370.47 | 206 |  |  | 205.07 | 410 |  | 
O=C(O)c1cc(-c2ccc(N3CCOCC3)cc2)c2c(C3CCC3)nn(-c3ccc(F)c(F)c3)c2n1 [compound 350, 3-cyclobutyl-1-(3,4-difluorophenyl)-4-[4-(morpholin-4-yl)phenyl]-1H-pyrazolo[3,4-b]pyridine-6-carboxylic acid] | 397.5 | 316 |  |  | 211 | 426 |  | 
O=C(O)c1cc(N2CCC(C(F)(F)F)C2)c2c(C3CCC3)nn(-c3ccccc3)c2n1 (centres unmarked) [compound 442, 3-cyclobutyl-1-phenyl-4-[3-(trifluoromethyl)pyrrolidin-1-yl]-1H-pyrazolo[3,4-b]pyridine-6-carboxylic acid] | 321.95 | 655 | 137.7 | 1080 |  |  |  | 
CN(c1ncc(-c2cc(C(=O)O)nc3c2c(C2CCC2)nn3-c2cccc(N3CCCC3)c2)cn1)C1CCOCC1 [compound 277, 3-cyclobutyl-4-{2-[methyl(oxan-4-yl)amino]pyrimidin-5-yl}-1-[3-(pyrrolidin-1-yl)phenyl]-1H-pyrazolo[3,4-b]pyridine-6-carboxylic acid] | 608.57 | 515 |  |  | 356.47 | 513 |  | 
O=C(O)c1cc(N2CCN(CC(=O)N3CCOCC3)CC2)c2c(C3CCC3)nn(-c3ccccc3)c2n1 [compound 474, 3-cyclobutyl-4-{4-[2-(morpholin-4-yl)-2-oxoethyl]piperazin-1-yl}-1-phenyl-1H-pyrazolo[3,4-b]pyridine-6-carboxylic acid] | 301.35 | 2250 | 125.3 | 3340 |  |  |  | 
CC(C)c1nn(C2CCCCC2)c2nc(C(=O)O)cc(N3CCC(CO)CC3)c12 [compound 266, 1-cyclohexyl-4-[4-(hydroxymethyl)piperidin-1-yl]-3-(propan-2-yl)-1H-pyrazolo[3,4-b]pyridine-6-carboxylic acid] | 405.3 | 1050 |  |  | 197.55 | 1250 |  | 
O=C(O)c1cc(OC2CC3(COC3)C2)c2c(C3CCC3)nn(-c3ccccc3)c2n1 [compound 495, 3-cyclobutyl-4-[(2-oxaspiro[3.3]heptan-6-yl)oxy]-1-phenyl-1H-pyrazolo[3,4-b]pyridine-6-carboxylic acid] | 235.15 | 307 | 95.96 | 1110 |  |  |  | 
CC(C)N1CCN(C2CCN(c3cc(C(=O)O)nc4c3c(C3CCC3)nn4-c3ccc(F)cc3)CC2)CC1 [compound 879, 3-cyclobutyl-1-(4-fluorophenyl)-4-{4-[4-(propan-2-yl)piperazin-1-yl]piperidin-1-yl}-1H-pyrazolo[3,4-b]pyridine-6-carboxylic acid] | 446.25 | 196 | 279.6 | 355 |  |  |  | 
Cc1nn(-c2ccccc2)c2nc(C(=O)O)cc(-c3ccc(NC4CCC4)cc3)c12 [compound 96, 4-[4-(cyclobutylamino)phenyl]-3-methyl-1-phenyl-1H-pyrazolo[3,4-b]pyridine-6-carboxylic acid] | 329.75 | 1200 |  |  | 141.5 | 1530 |  | 
O=C(O)c1cc(N2CCC([C@@H](F)CO)CC2)c2c(C3CCC3)nn(-c3ccccc3)c2n1 [compound 458, 3-cyclobutyl-4-{4-[(1R)-1-fluoro-2-hydroxyethyl]piperidin-1-yl}-1-phenyl-1H-pyrazolo[3,4-b]pyridine-6-carboxylic acid] | 399.6 | 278 | 216.4 | 485 |  |  |  | 
CC(C)c1nn(-c2cccc(N(C)C)c2)c2nc(C(=O)O)cc(N3CCC(CO)CC3)c12 [compound 331, 1-[3-(dimethylamino)phenyl]-4-[4-(hydroxymethyl)piperidin-1-yl]-3-(propan-2-yl)-1H-pyrazolo[3,4-b]pyridine-6-carboxylic acid] | 513.57 | 390 |  |  | 311.73 | 1050 |  | 
COCC1CCN(c2cc(C(=O)O)nc3c2c(C2CCC2)nn3-c2ccnc(OC)c2)CC1 [compound 678, 3-cyclobutyl-4-[4-(methoxymethyl)piperidin-1-yl]-1-(2-methoxypyridin-4-yl)-1H-pyrazolo[3,4-b]pyridine-6-carboxylic acid] | 373.3 | 91.8 | 181.5 | 230 |  |  |  | 
CCOCCN1CCN(c2cc(C(=O)O)nc3c2c(C2CCC2)nn3-c2ccccc2)CC1 [compound 566, 3-cyclobutyl-4-[4-(2-ethoxyethyl)piperazin-1-yl]-1-phenyl-1H-pyrazolo[3,4-b]pyridine-6-carboxylic acid] | 365.3 | 407 | 150.5 | 388 |  |  |  | 
O=C(O)c1cc(NCC2CCOCC2)c2c(C3CCC3)nn(-c3ccccc3)c2n1 [compound 590, 3-cyclobutyl-4-{[(oxan-4-yl)methyl]amino}-1-phenyl-1H-pyrazolo[3,4-b]pyridine-6-carboxylic acid] | 310.45 |  | 141.3 |  |  |  | 2030 | 2610

From US9796711B2, “Substituted pyrazolo[3,4-b]pyridin-6-carboxylic acids and method of use” (AbbVie S.àr.l., priority 2015, dated 2017)
